Some test systems named below: HCC-2998 colon; SF-268 CNS; MDA-MB-231 breast; RXF 393 renal; MCF7 breast; IGROV1 ovarian; NCI-H226 lung; A549 NSCLC; MDA-N; SF-539 CNS; U251 CNS; CAKI-1 renal.
What all share (assay): DTP human tumour cell line panel, 48 h

Where “and” joins values, the source holds several entries; their conditions need not be identical. Identical values can stand only once.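 These data come from cells grown in 96-well plates and exposed to compound for 48 hours at five concentrations. Abbreviation: GI50, concentration required for 50% inhibition of growth. TGI is the concentration that stops growth completely.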

As for `CCN(CC)c1ccc2cc(C(=O)Nc3ccccc3)c(=N)oc2c1`, the TGI in the assay on HCC-2998 colon, in the assay on SF-268 CNS, with MDA-MB-231 breast, in the assay on RXF 393 renal, with MCF7 breast and in the assay on IGROV1 ovarian was more than 100 µM throughout. Besides, the TGI in the assay with NCI-H226 lung, in the assay with A549 NSCLC, in the assay on MDA-N, in the assay on SF-539 CNS, in the assay with U251 CNS and with CAKI-1 renal was more than 100 µM in each case.

As for `Cc1nc2c(=O)n(-c3ccccc3)c3ccccc3c2o1`, the total growth inhibition concentration (TGI) with HCC-2998 colon, with SF-268 CNS, with MDA-MB-231 breast, in the assay with RXF 393 renal, in the assay on MCF7 breast and with IGROV1 ovarian was more than 100 µM throughout. For the same molecule, the total growth inhibition concentration (TGI) in the assay with NCI-H226 lung, with A549 NSCLC, in the assay with MDA-N, with SF-539 CNS, in the assay on U251 CNS and in the assay with CAKI-1 renal was more than 100 µM throughout.

As for `COc1cc2cccc(N)c2cc1OC`, the concentration for total growth inhibition (TGI) in the assay on HCC-2998 colon, with SF-268 CNS, in the assay on MDA-MB-231 breast, in the assay on RXF 393 renal, in the assay on MCF7 breast and in the assay with IGROV1 ovarian was more than 100 µM throughout. Besides, the TGI with NCI-H226 lung, with A549 NSCLC, with MDA-N, in the assay with SF-539 CNS, in the assay with U251 CNS and with CAKI-1 renal was more than 100 µM each time.

Consider `COCCCNC(=O)C1=C(C)NC(C)=C(C(=O)NCCCOC)C1`, for which the TGI (commonly the concentration at which net growth stops) was more than 100 µM in the assay with HCC-2998 colon; more than 100 µM in the assay with SF-268 CNS; more than 100 µM in the assay on MDA-MB-231 breast; more than 100 µM with RXF 393 renal; more than 100 µM with MCF7 breast; 26.9 µM in the assay on IGROV1 ovarian. Also, the TGI in the assay with NCI-H226 lung, in the assay with A549 NSCLC, in the assay with MDA-N, with SF-539 CNS, with U251 CNS and with CAKI-1 renal was more than 100 µM throughout.

For `COc1ccc2[nH]cc([C@@H]3C4CCC(C4)[C@H]3NCc3cccc(CN[C@H]4C5CCC(C5)[C@@H]4c4c[nH]c5ccc(OC)cc45)c3)c2c1`, the TGI in the assay with HCC-2998 colon is 0.53 µM and 0.842 µM; with SF-268 CNS, 2.52 µM and 2.93 µM; with MDA-MB-231 breast, 2.42 µM and 2.98 µM; in the assay on RXF 393 renal, 3.1 µM and 2.79 µM; in the assay on MCF7 breast, 2.25 µM and 2.86 µM; in the assay with IGROV1 ovarian, 2.61 µM. Further, the TGI in the assay on NCI-H226 lung is 3.64 µM; with A549 NSCLC, 2.64 µM and 2.99 µM; with MDA-N, 2.04 µM and 2.2 µM; in the assay with SF-539 CNS, 3.21 µM and 2.5 µM; in the assay on U251 CNS, 0.329 µM and 0.324 µM; in the assay on CAKI-1 renal it was 2.79 µM and 3.21 µM. For the same molecule, the GI50 (in general, the concentration at which growth is held to half of that of the control) in the assay on SF-268 CNS was 1.23 µM; with MCF7 breast, 0.805 µM; in the assay on MDA-N it was 0.776 µM; in the assay on U251 CNS, 0.168 µM and 0.17 µM.

Consider `CC(C)NC(=O)OCc1c(COC(=O)NC(C)C)c(-c2cc[n+](COC(=O)C(C)(C)C)cc2)n2c1CCC2`, for which the TGI with HCC-2998 colon, in the assay on SF-268 CNS, in the assay on MDA-MB-231 breast, in the assay with RXF 393 renal, with MCF7 breast and in the assay with IGROV1 ovarian was more than 100 µM throughout. For the same molecule, the TGI in the assay on NCI-H226 lung, in the assay on A549 NSCLC, with MDA-N, in the assay with SF-539 CNS, in the assay on U251 CNS and in the assay with CAKI-1 renal was more than 100 µM throughout.

As for `CC(=O)Nc1ccc(-c2nc3ccccc3s2)cc1I`, the total growth inhibition concentration (TGI) with HCC-2998 colon was more than 100 µM; in the assay with SF-268 CNS, 97.4 µM; in the assay on MDA-MB-231 breast, more than 65.1 µM; in the assay on RXF 393 renal, 37 µM; in the assay on MCF7 breast it was more than 59.5 µM; with IGROV1 ovarian, 20 µM. Further, the concentration for total growth inhibition (TGI) in the assay on NCI-H226 lung was 59.4 µM; in the assay with A549 NSCLC, more than 100 µM; with MDA-N, more than 100 µM; with SF-539 CNS, 55.6 µM; with U251 CNS, more than 81.6 µM; with CAKI-1 renal, more than 100 µM.

Regarding `COC(=O)/C=C1/CCC(C)(C(=O)NS(=O)(=O)c2ccc(C)cc2)C1(C)C` (stereo not drawn), the total growth inhibition concentration (TGI) with HCC-2998 colon, with SF-268 CNS, in the assay with MDA-MB-231 breast, with RXF 393 renal, in the assay on MCF7 breast and in the assay with IGROV1 ovarian was more than 100 µM in each case. The TGI in the assay on NCI-H226 lung, in the assay on A549 NSCLC, in the assay with MDA-N, with SF-539 CNS, in the assay with U251 CNS and in the assay on CAKI-1 renal was more than 100 µM each time.

Take `NC(=S)N/N=C1\NC(=O)/C(=C/c2ccc3c(c2)OCO3)S1`: the concentration for total growth inhibition (TGI) with HCC-2998 colon was more than 100 µM; with SF-268 CNS, 97.3 µM; with MDA-MB-231 breast, 77.1 µM; with RXF 393 renal, 52.3 µM; in the assay with MCF7 breast, more than 100 µM; in the assay with IGROV1 ovarian, 49.4 µM. Also, the TGI in the assay with NCI-H226 lung is 78.7 µM; with A549 NSCLC it was more than 100 µM; in the assay on MDA-N, 97.9 µM; in the assay on SF-539 CNS, more than 100 µM; in the assay on U251 CNS it was 57.7 µM; with CAKI-1 renal, 71.8 µM.

In the case of `Cc1ncc2c(=O)c3c(oc2n1)c1ccccc1n3Cc1ccccc1`, the concentration for total growth inhibition (TGI) with HCC-2998 colon, in the assay with SF-268 CNS, in the assay on MDA-MB-231 breast, in the assay with RXF 393 renal, in the assay on MCF7 breast and in the assay with IGROV1 ovarian was more than 100 µM in each case. For the same molecule, the total growth inhibition concentration (TGI) in the assay with NCI-H226 lung, in the assay on A549 NSCLC, with MDA-N, in the assay with SF-539 CNS, with U251 CNS and with CAKI-1 renal was more than 100 µM throughout.

For `COc1cccc2c1OC(c1ccc(C#N)cc1)C([N+](=O)[O-])=C2` (stereo not drawn), the TGI with HCC-2998 colon stood at 3.15 µM; with SF-268 CNS, 16.1 µM; in the assay with MDA-MB-231 breast, 2.92 µM; in the assay on RXF 393 renal, 3.12 µM; in the assay with MCF7 breast it was 2.88 µM; in the assay with IGROV1 ovarian, 3.76 µM. Further, the concentration for total growth inhibition (TGI) in the assay with NCI-H226 lung came to 9.75 µM; in the assay with A549 NSCLC, 7.03 µM; in the assay with MDA-N it was 2.87 µM; with SF-539 CNS, 4.23 µM; in the assay with U251 CNS it was 3.56 µM; in the assay with CAKI-1 renal it was 4.89 µM.

Take `CCOC(=O)c1cnc2n(c1=N)[C@H]1CCCC[C@@H]1N2`: the TGI in the assay on HCC-2998 colon, in the assay with SF-268 CNS, in the assay on MDA-MB-231 breast, in the assay with RXF 393 renal, in the assay with MCF7 breast and with IGROV1 ovarian was more than 100 µM in each case. Besides, the TGI with NCI-H226 lung, with A549 NSCLC, in the assay with MDA-N, in the assay on SF-539 CNS, in the assay with U251 CNS and with CAKI-1 renal was more than 100 µM each time.

In the case of `CN(C)P(=O)(Oc1ccc(CC(NC(=O)OCc2ccccc2)C(=O)OCc2ccccc2)cc1)N(C)C` (stereo not drawn), the TGI in the assay with HCC-2998 colon turned out to be 37.8 µM; with SF-268 CNS it was 27.8 µM; in the assay on MDA-MB-231 breast it was 34.3 µM; in the assay with RXF 393 renal it was 32.7 µM; in the assay on MCF7 breast, 31.6 µM; in the assay on IGROV1 ovarian, 32.9 µM. Besides, the TGI is 52.8 µM with NCI-H226 lung; 38.2 µM in the assay on A549 NSCLC; 34 µM with MDA-N; 39.7 µM with SF-539 CNS; 28.2 µM in the assay with U251 CNS; 32.8 µM in the assay on CAKI-1 renal.

In the case of `CCCCCCCCCCCCCCCCOCC(Cl)COP(=O)(O)OP(=O)(O)OCC1OC(n2cc(C)c(=O)[nH]c2=O)CC1O` (stereo not drawn), the concentration for total growth inhibition (TGI) in the assay on HCC-2998 colon, with SF-268 CNS, in the assay with MDA-MB-231 breast, in the assay on RXF 393 renal, in the assay with MCF7 breast and in the assay on IGROV1 ovarian was more than 100 µM each time. Moreover, the TGI is 80.5 µM in the assay on NCI-H226 lung; more than 100 µM in the assay with A549 NSCLC; more than 100 µM with MDA-N; more than 100 µM with SF-539 CNS; more than 100 µM with U251 CNS; more than 100 µM in the assay with CAKI-1 renal.

Turning to `COC(=O)C1OC(O[C@H]2CC[C@]3(C)[C@H]4CC=C5[C@@H]6CC(C)(C)CC[C@]6(C(=O)OC6OCC(O)C(O)C6OC6OC(C)C(OC7OCC(O)C(OC8OCC(O)C(O)C8O)C7O)C(OC7OCC(O)C(O)C7O)C6O)CC[C@@]5(C)[C@]4(C)CC[C@H]3C2(C)C)C(O)C(OC2OCC(O)C(O)C2O)C1O` (stereo partly drawn), the TGI was 3.13 µM and 3.37 µM in the assay with HCC-2998 colon; > 76.2 µM and 19.9 µM with SF-268 CNS; 8.81 µM and 13.5 µM in the assay with MDA-MB-231 breast; > 67 µM and 35.6 µM in the assay with RXF 393 renal; > 84.5 µM and 20.9 µM in the assay on MCF7 breast; > 100 µM and 24.9 µM in the assay with IGROV1 ovarian. The concentration for total growth inhibition (TGI) was 11 µM and 17.8 µM in the assay on NCI-H226 lung; 11.3 µM and 11.7 µM with A549 NSCLC; 3.35 µM and 4.04 µM in the assay on MDA-N; more than 100 µM in the assay with SF-539 CNS; > 100 µM and 20.6 µM in the assay with U251 CNS; 35.4 µM and 17.9 µM in the assay on CAKI-1 renal. For the same molecule, the GI50 was 6.36 µM and 13.7 µM in the assay with RXF 393 renal; > 100 µM and 47.6 µM with SF-539 CNS.

In the case of `O=C(c1ccccc1)c1ccc(-n2c3ccccc3c3ccc4c(c32)C(=O)C=CC4=O)cc1`, the TGI in the assay on HCC-2998 colon was found to be 29.6 µM; in the assay on SF-268 CNS, 26.3 µM; in the assay with MDA-MB-231 breast, 26.2 µM; in the assay with RXF 393 renal, 19.2 µM; in the assay with MCF7 breast, 10 µM; in the assay on IGROV1 ovarian, 37.5 µM. Besides, the TGI in the assay on NCI-H226 lung worked out at 53.8 µM; in the assay with A549 NSCLC it was 36.4 µM; in the assay on MDA-N it was 40.6 µM; with SF-539 CNS, 34.2 µM; with U251 CNS, 30.4 µM; with CAKI-1 renal, 4.4 µM.

Source of the values: PubChem BioAssay (NCI).
